Where a name gives a salt, the structure may show the parent alone.
What was measured:
[1] = molecular target: T1, TBK1 (Homo sapiens, UniProt Q9UHD2); assay: TBK Biochemical Assay; details: read-out: TBK1 IC50
T1 sequence (Q9UHD2 1-729): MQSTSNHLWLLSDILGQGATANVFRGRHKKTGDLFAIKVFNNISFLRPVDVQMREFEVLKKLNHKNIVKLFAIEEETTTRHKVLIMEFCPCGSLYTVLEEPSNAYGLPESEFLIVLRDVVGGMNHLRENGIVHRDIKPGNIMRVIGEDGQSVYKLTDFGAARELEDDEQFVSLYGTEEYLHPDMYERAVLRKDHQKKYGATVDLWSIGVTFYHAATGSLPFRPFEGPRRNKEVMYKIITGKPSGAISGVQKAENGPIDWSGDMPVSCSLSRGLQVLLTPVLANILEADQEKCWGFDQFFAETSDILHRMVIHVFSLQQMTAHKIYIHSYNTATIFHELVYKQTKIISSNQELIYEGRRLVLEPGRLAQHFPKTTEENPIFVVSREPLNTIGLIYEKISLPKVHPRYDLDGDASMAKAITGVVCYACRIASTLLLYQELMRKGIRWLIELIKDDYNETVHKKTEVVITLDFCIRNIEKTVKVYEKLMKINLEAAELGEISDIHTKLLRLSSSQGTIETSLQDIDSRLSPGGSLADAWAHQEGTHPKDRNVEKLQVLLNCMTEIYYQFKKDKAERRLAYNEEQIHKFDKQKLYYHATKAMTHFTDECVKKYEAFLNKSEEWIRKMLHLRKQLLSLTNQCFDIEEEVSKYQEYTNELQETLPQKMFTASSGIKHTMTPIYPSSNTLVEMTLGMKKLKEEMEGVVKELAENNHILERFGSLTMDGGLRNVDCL
How it was run: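 Caliper LabChip mobility-shift readout of substrate and product after 90 min of TBK1 reaction at 25° C and stop-buffer addition. Compounds tested in 1:4 serial dilution over 10 points from 30 uM final at 1% DMSO; staurosporine 10 uM final defines full inhibition.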

[2] = tested on: phosphorylation of the IRF-3 protein in MDA-MB-468 cells; assay: pIRF3 immunocytochemistry cell based assay; details: Homo sapiens; MDA-MB-468 cells, Poly(I:C) stimulation; read-out: pIRF3 IC50
How it was run: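 After 2 h stimulation with Poly(I:C) (10 ug/ml), following 1 h compound pre-treatment (10-point, 3-fold dilution, top 10 uM), MDA-MB-468 cells were fixed and stained with anti-pIRF3 antibody. pIRF3 fluorescence was normalized to PI staining or cell count on an Acumen cytometer. IC50 curves were derived from this.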

[3] = molecular target: T2, IKKε (Homo sapiens, UniProt Q14164); assay: IKKe Biochemical Assay; details: read-out: IKKε IC50
T2 sequence (Q14164 1-716): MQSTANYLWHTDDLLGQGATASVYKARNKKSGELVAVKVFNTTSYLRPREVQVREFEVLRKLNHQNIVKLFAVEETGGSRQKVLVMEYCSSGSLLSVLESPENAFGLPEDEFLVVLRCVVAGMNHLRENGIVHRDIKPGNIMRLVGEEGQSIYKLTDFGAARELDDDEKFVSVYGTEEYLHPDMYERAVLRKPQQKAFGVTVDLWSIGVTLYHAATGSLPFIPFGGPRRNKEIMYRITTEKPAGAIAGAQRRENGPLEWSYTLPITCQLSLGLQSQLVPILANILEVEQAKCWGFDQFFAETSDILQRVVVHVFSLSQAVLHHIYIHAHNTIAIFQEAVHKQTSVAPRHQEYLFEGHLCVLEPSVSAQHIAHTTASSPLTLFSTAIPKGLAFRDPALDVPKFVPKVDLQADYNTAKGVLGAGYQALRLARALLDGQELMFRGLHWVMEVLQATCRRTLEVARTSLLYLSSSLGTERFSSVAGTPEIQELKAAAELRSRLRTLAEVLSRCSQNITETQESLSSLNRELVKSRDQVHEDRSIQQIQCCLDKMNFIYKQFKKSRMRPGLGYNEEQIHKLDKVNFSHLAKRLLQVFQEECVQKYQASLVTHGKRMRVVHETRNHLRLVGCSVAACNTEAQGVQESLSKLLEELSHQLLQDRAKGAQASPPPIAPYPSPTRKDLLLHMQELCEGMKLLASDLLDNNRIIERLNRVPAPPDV
How it was run: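 Activity was measured as mobility-shift separation of phosphorylated from unphosphorylated substrate on a LabChip EZ Reader. Compound was titrated from 30 uM final in 10 points, 1:4 steps, with 1% DMSO, and enzyme plus substrate reacted 90 min at 25° C before stop buffer. Control wells held 10 uM staurosporine.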

SMILES	IC50 [1]	IC50 [2]	IC50 [3]
COc1cc(C(=O)N2CC3(CCCN3)C2)ccc1-c1cc2nccc(-c3ccc(OC4CCOCC4)c(C#N)c3)c2o1 [Compound 29, 5-{2-[4-(2,5-Diaza-spiro[3.4]octane-2-carbonyl)-2-methoxy-phenyl]-furo[3,2-b]pyridin-7-yl}-2-(tetrahydro-pyran-4-yloxy)-benzonitrile hydrochloride]	< 100 nM	100 to 1000 nM	< 100 nM
COc1cc(C(=O)N(C)C)ccc1-c1cc2nccc(-c3ccc(OC4CCOCC4)c(C#N)n3)c2o1 [Compound 31, 4-{7-[6-Cyano-5-(tetrahydro-pyran-4-yloxy)-pyridin-2-yl]-furo[3,2-b]pyridin-2-yl}-3-methoxy-N,N-dimethyl-benzamide]	< 100 nM	< 100 nM	< 100 nM
COc1cc(C(=O)N2C[C@H]3C[C@@H](O)C[C@H]3C2)ccc1-c1cc2nccc(-c3ccc(OC4CCOCC4)c(C#N)c3)c2o1 [Compound 32, 5-{2-[4-((3aR,5R,6aS)-5-Hydroxy-hexahydro-cyclopenta[c]pyrrole-2-carbonyl)-2-methoxy-phenyl]-furo[3,2-b]pyridin-7-yl}-2-(tetrahydro-pyran-4-yloxy)-benzonitrile]	< 100 nM	< 100 nM	< 100 nM
COc1cc(C(=O)N2CC[C@@H](N(C)C)C2)ccc1-c1cc2nccc(-c3ccc(N4CC[C@H](F)C4)c(C#N)c3)c2o1 [Compound 33, 5-{2-[4-((R)-3-Dimethylamino-pyrrolidine-1-carbonyl)-2-methoxy-phenyl]-furo[3,2-b]pyridin-7-yl}-2-((S)-3-fluoro-pyrrolidin-1-yl)-benzonitrile]	< 100 nM	100 to 1000 nM	< 100 nM
COc1cc(C(=O)N2CCC3(CC2)NCNC3=O)ccc1-c1cc2nccc(-c3ccc(NC4CCOCC4)c(C#N)c3)c2o1 [Compound 34, 5-{2-[2-Methoxy-4-(4-oxo-1,3,8-triaza-spiro[4.5]decane-8-carbonyl)-phenyl]-furo[3,2-b]pyridin-7-yl}-2-(tetrahydro-pyran-4-ylamino)-benzonitrile]	< 100 nM	100 to 1000 nM	< 100 nM
COc1cc(C(=O)N(C)C)ccc1-c1cc2nccc(-c3ccc(N4CCC(F)C4)c(C#N)c3)c2o1 (stereo not drawn) [Compound 35]	< 100 nM	100 to 1000 nM	< 100 nM
COc1cc(C(=O)N(C)C)ccc1-c1cc2nccc(-c3ccc(NCC4CCOC4)c(C#N)c3)c2o1 (stereo not drawn) [Compound 36]	< 100 nM	100 to 1000 nM	< 100 nM
COc1cc(C(=O)N2CCCC2)ccc1-c1cc2nccc(-c3ccc(OC4CCOCC4)c(C#N)c3)c2o1 [Compound 37, 5-{2-[2-Methoxy-4-(pyrrolidine-1-carbonyl)-phenyl]-furo[3,2-b]pyridin-7-yl}-2-(tetrahydro-pyran-4-yloxy)-benzonitrile]	< 100 nM	100 to 1000 nM	< 100 nM
COc1cc(C(=O)N2CC(CO)C2)ccc1-c1cc2nccc(-c3ccc(OC4CCOCC4)c(C#N)c3)c2o1 [Compound 38, 5-{2-[4-(3-Hydroxymethyl-azetidine-1-carbonyl)-2-methoxy-phenyl]-furo[3,2-b]pyridin-7-yl}-2-(tetrahydro-pyran-4-yloxy)-benzonitrile]	< 100 nM	100 to 1000 nM	< 100 nM
COc1cc(C(=O)N2CC(O)C2)ccc1-c1cc2nccc(-c3ccc(OC4CCOCC4)c(C#N)c3)c2o1 [Compound 39, 5-{2-[4-(3-Hydroxy-azetidine-1-carbonyl)-2-methoxy-phenyl]-furo[3,2-b]pyridin-7-yl}-2-(tetrahydro-pyran-4-yloxy)-benzonitrile]	< 100 nM	100 to 1000 nM	< 100 nM
COc1cc(C(N)=O)ccc1-c1cc2nccc(-c3ccc(OC4CCOCC4)c(C#N)c3)c2o1 [Compound 40, 4-{7-[3-Cyano-4-(tetrahydro-pyran-4-yloxy)-phenyl]-furo[3,2-b]pyridin-2-yl}-3-methoxy-benzamide]	< 100 nM	100 to 1000 nM	< 100 nM

Reference: patent publication US10428080B2, “TBK/IKK inhibitor compounds and uses thereof” (Merck Patent GmbH, priority 2015, dated 2019)
